Reference: patent US6358966B2, “Treatment of depression” (H. Lundbeck A/S, priority 1998, dated 2002)

How the values were obtained:
[1] = system: black/white exploration test in rats; conditions: cited from earlier work
[2] = system: chronic mild stress induced anhedonia in rats; experiment: chronic mild stress induced anhedonia in rats (sucrose consumption); assay type: in vivo, Male Wistar rats
Text: The model of chronic mild stress induced anhedonia in rats. […] This model is based on the observation that chronic mild stress causes a gradual decrease in sensitivity to rewards, for example consumption of sucrose, and that this decrease is dose-dependently reversed by chronic treatment with antidepressants. The method has previously been described and more information with respect to the test appears from Willner, Paul, Psycopharmacology, 1997, 134, 319-329. Male Wistar rats were trained to consume a 1% sucrose solution by nine 1-hour baseline tests in which sucrose was presented in the home cage following 14 h food and water deprivation. One group of animals was subjected to a chronic mild stress procedure for a period of 9 consecutive weeks. Each week of the stress regime consisted of two periods of food and water deprivation, two periods of 45-degree cage tilt, two periods of intermittent illumination (light on and off every 2 h), two periods of soiled cage (250 ml water saw dust bedding), two periods of paired housing, two periods of low stroboscobic illumination (150 flashes/min) and two periods of no stress. All stress periods were of 12-14 hours duration and followed continuously, day and night. Control animals were housed in separate rooms with food and water freely available except for a 14-h period preceding each sucrose test, and they had no contact with stressed animals. Stressed animals as well as control animals were divided into matched subgroups, and for subsequent five weeks they received daily intraperitoneal injections (1 ml/kg body weight) of vehicle (minimum amount of propylene glycol and methane sulfonic acid (1:1) diluted with water) or test compound. Sucrose tests were carried out 24 hours following to last drug treatment.

sigma2 = conditions: cited from earlier work
psychosis = conditions: cited from earlier work

SMILES	anxiolytic activity in the black/white exploration test [1]	consumption of sucrose in the control animals ([2]; non-stressed control rats, daily i.p. for five weeks)	sucrose intake in stressed animals versus initial scores ([2]; stressed rats, 1.0 mg/kg daily i.p.)	reversal of chronic mild stress induced deficit in sucrose intake ([2]; stressed rats, 1.0 mg/kg daily i.p. for five weeks)	sigma ligand potency and selectivity (sigma2)	clinical effect in the treatment of psychosis (psychosis)
Fc1ccc(-n2cc(CCCCN3CCC4(CC3)OCc3ccccc34)c3ccccc32)cc1 [compound of the invention, 1′-[4-[1-(4-fluorophenyl)-1H-indole-3-yl]-1-butyl]-spiro[isobenzofuran-1(3H),4′-piperidine]]	active over a large dose range	did not significantly affect	significantly increased from initial scores after three, four and five weeks	able to reverse	potent and selective sigma ligand, in particular a sigma2 ligand	–
C[C@@H]1CN(CCCn2c3ccccc3c3ccccc32)C[C@H](C)N1 [rimcazole]	–	–	–	–	–	clinically shows effect in the treatment of psychosis
